The test system of data set [1] is MDA-MB-231. As to the kind of experiment: cells. In kind it is functional. As to conditions: Homo sapiens, MDA-MB-231, 72 h; time 3 day.
Description: Antiproliferative activity against human MDA-MB-231 cells assessed as inhibition of cell growth incubated for 3 days by alamar blue assay
Data set [2] concerns NCI-H526. Briefly: cells. The following applies: Homo sapiens, NCI-H526, 72 h; time 3 day. The data set is classed as functional.
Description: Antiproliferative activity against human NCI-H526 cells assessed as inhibition of cell growth incubated for 3 days by alamar blue assay
A short description of data set [3]: Stability of compound in buffer at pH 7.4. In kind it is physicochemical.
The target of data set [4] is T1, Lysine-specific histone demethylase 1A (Homo sapiens, UniProt O60341). As to the kind of experiment: Potency index, ratio of phenylcyclopropylamine IC50 to test compound IC50 for inhibition of LSD1 (unknown origin) using H3K4me2 peptide as substrate preincubated for 15 mins followed by substrate addition and measured after 30 mins by fluorescence based analysis. As to conditions: time 45.0 min.

The target in data set [5] is T1, Lysine-specific histone demethylase 1A. As to the kind of experiment: Prodrug conversion assessed as LSD1 (unknown origin)-mediated vorinostat release incubated for 24 hrs by HPLC analysis. The data set is classed as ADME.
The target is the same in data set [6].
Description: Inhibition of LSD1 (unknown origin) using H3K4me2 peptide as substrate preincubated for 15 mins followed by substrate addition and measured after 30 mins by fluorescence based analysis
Data set [7] is described as follows: in vitro. The following applies: human, HMEC cells.
Description: Cytotoxicity against HMEC cells assessed as inhibition of cell growth incubated for 3 days by alamar blue assay
A short description of data set [8]: in vitro. The following applies: human, HMEC cells versus MDA-MB-231 cells.
Description: Selectivity index, ratio of IC50 for cytotoxicity against HMEC cells to GI50 for antiproliferative activity against human MDA-MB-231 cells
Data set [9] is described as follows: Stability of compound in HEPES buffer at pH 7.4 at 100 uM incubated for 24 hrs by HPLC analysis. In kind it is physicochemical. As to conditions: pH 7.4, 24 h.
The target in data set [10] is Histone deacetylase 1 (Homo sapiens) (UniProt Q13547). Briefly: Inhibition of HDAC1 in human NCI-H526 cells assessed as increase in H3K4 methylation at 16 uM measured after 24 to 72 hrs by Western blot analysis. In kind it is cell-based. The following applies: time 24-72 hrs. For orientation: Immunoblotting shows a protein as a band on a membrane.
Data set [11] shares this target. Briefly: Inhibition of HDAC1 in human NCI-H526 cells assessed as increase in H3K9 acetylation at 16 uM measured after 24 to 72 hrs by Western blot analysis. The data set is classed as cell-based. The following applies: time 24-72 hrs.
Data set [12] shares this target. Briefly: Potency index, ratio of vorinostat IC50 to test compound IC50 for inhibition of HDAC1 human NCI-H526 cells measured after 24 to 72 hrs by Western blot analysis. The data set is classed as cell-based. As to conditions: time 24-72 hrs.
Data set [13] has as its system MDA-MB-231. As to the kind of experiment: Synergistic antiproliferative activity against human MDA-MB-231 cells assessed as inhibition of cell growth incubated for 3 days in presence of LSD1 inhibitor, NCD38 by alamar blue assay. In kind it is functional, cell-based. The following applies: time 3.0 day. A general note: Alamar Blue is a resazurin reagent that responds to reducing activity.

In data set [14] the test system is MDA-MB-231. As to the kind of experiment: Synergistic antiproliferative activity against human MDA-MB-231 cells assessed as inhibition of cell growth incubated for 3 days in presence of vorinostat by alamar blue assay. The data set is classed as functional, cell-based. As to conditions: time 3.0 day.
Data set [15] deals with MDA-MB-231. As to the kind of experiment: Additive antiproliferative activity against human MDA-MB-231 cells assessed as inhibition of cell growth incubated for 3 days in presence of 4-(Chloromethyl)phenyl acetate by alamar blue assay. In kind it is functional, cell-based. As to conditions: time 3.0 day.
Data set [16] in a line: in vitro. The following applies: human, HMEC cells versus NCI-H526 cells.
Description: Selectivity index, ratio of IC50 for cytotoxicity against HMEC cells to GI50 for antiproliferative activity against human NCI-H526 cells

The structures appear in SMILES notation. Activity calls are given as the source filed them. The rule behind the calls is not given here.

Usually GI50 stands for the concentration giving 50% growth inhibition. A high value points to less potent growth inhibition. The term IC50 denotes the midpoint of a concentration-inhibition curve. The low end stands for inhibition by little substance, the high end for a need for much substance.

Histone deacetylase 1 (Homo sapiens), sequence (Q13547 whole entry): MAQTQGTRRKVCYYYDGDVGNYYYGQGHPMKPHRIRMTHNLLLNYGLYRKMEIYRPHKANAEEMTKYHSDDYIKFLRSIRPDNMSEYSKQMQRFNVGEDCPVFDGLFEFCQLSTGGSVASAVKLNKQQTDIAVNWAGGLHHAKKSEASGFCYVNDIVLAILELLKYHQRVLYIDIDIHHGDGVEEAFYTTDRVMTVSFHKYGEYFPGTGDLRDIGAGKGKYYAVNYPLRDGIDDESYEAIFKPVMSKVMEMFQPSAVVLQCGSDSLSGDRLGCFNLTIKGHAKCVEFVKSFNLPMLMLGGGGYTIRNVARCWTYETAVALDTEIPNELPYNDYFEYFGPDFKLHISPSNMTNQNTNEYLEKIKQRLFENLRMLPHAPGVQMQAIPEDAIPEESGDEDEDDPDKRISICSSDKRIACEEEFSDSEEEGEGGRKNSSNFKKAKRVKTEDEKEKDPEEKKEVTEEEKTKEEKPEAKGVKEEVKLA

Regarding `CC(=O)Oc1ccc(CCl)cc1`, the GI50 was determined as 2050 nM in data set [1] and 2020 nM in [2].
With `CN(CCN(C)C1CC1c1ccccc1)C(=O)Oc1ccc(CONC(=O)CCCCCCC(=O)Nc2ccccc2)cc1` (centres undefined), in data set [3], the Stability result is on record as “Stable”. The Ratio IC50 in [4] stood at 19. Moreover, the Drug metabolism entry in data set [5] is “Metabolite_Detected”. Moreover, the GI50 in data set [1] was 34300 nM. In data set [6], this compound showed an IC50 of 1290 nM. Also, in data set [7], the IC50 at 3 days was above 100000 nM. Also, the selectivity ratio in data set [8] is above 2.92.
For `CNC(=O)c1cccc(-c2ccc([C@@H]3C[C@H]3N(C)CCN(C)C(=O)Oc3ccc(CONC(=O)CCCCCCC(=O)Nc4ccccc4)cc3)cc2)c1`, in data set [6], the IC50 came out at 444 nM.
The same measure, in the same setting: the same measure for `CNC(=O)c1cccc(-c2ccc([C@H]3C[C@@H]3N(C)CCN(C)C(=O)Oc3ccc(CONC(=O)CCCCCCC(=O)Nc4ccccc4)cc3)cc2)c1`: 457 nM.
Regarding `CN(CCN(C)C1CC1c1ccccc1)C(=O)ONC(=O)CCCCCCC(=O)Nc1ccccc1` (centres undefined), the Stability entry in [9] is listed as “Unstable”.
Take `CNC(=O)c1cccc(-c2ccc(C3CC3N(C)CCN(C)C(=O)Oc3ccc(CONC(=O)CCCCCCC(=O)Nc4ccccc4)cc3)cc2)c1` (racemic): the values for the GI50 in data set [1] and in [2] were 4490 nM and 1000 nM, respectively. Further, the inhibition result in data set [10] and in data set [11] was “Active” each time. The Ratio IC50 in data set [12] came to 40. Further, the outcome in data set [13], in data set [14] and in data set [15] was Active. Moreover, in data set [6], the IC50 was determined as 126 nM. Moreover, the IC50 at 3 days in data set [7] was above 100000 nM. Further, the selectivity ratio in [8] was above 22.3; in data set [16], above 100.

Source of the values: ChEMBL document CHEMBL5126645, “Cancer-Cell-Selective Targeting by Arylcyclopropylamine-Vorinostat Conjugates” (ACS Med Chem Lett, 2022).
